Source: patent US12428428B2, “Tricyclic tetrahydroisoquinoline derivative, preparation method therefor and application thereof in medicine” (JIANGSU HENGRUI MEDICINE CO., LTD., priority 2020, dated 2025)

Legend:
CYP3A4 [1] = target: T1, CYP3A4 (Homo sapiens (Human), UniProt P08684); assay: Time-dependent inhibition of site of metabolism of midazolam in human liver microsome CYP3A4; type: in vitro ADME; conditions: midazolam substrate; for IC50 shift at 30 min: human, human liver microsomes, probe midazolam (3 µM)
Experimental: (§1) • 1. Phosphate buffer (20×PBS, purchased from Sangon); • 2. NADPH (ACROS, A2646-71-1); • 3. Human liver microsome (Corning Gentest, Cat No, 452161, Lot No. 9050002, Donor, 36); • 4. ABI QTrap 4000 LC-MS System (AB Sciex); • 5. ZORBAX Extend-C18, 3×50 mm, 3.5 μm (Agilent, USA); • 6. CYP probe substrate (midazolam, TRC, M343000/3 μM) and positive control inhibitor (verapamil, Adamas Reagent Co, Ltd, Cat No. 25904A).
(§2) A 100 mM PBS buffer was prepared. A 0.25 mg/mL microsome solution, a 7.5 mM MgCl2 and a 5 mM NADPH solution were prepared using the buffer. A 30 mM stock solution was diluted with DMSO to obtain 30 mM, 10 mM, 3 mM, 1 mM, 0.3 mM, 0.1 mM, 0.03 mM and 0 mM serial solutions I, which were further diluted 200-fold with phosphate buffer (PBS) to obtain serial test solutions II (150, 50, 15, 5, 1.5, 0.5, 0.15 and 0 μM). A midazolam working solution was diluted with PBS to 15 μM.
(§3) The serial test solutions prepared above were well mixed by shaking and aliquoted in 20 μL portions into corresponding reaction plates (+NADPH, T0 and −NADPH groups were set). Three parallel tests were set. 40 μL of the liver microsome working solution was added to each 96-well plate. 20 μL of a corresponding substrate solution was added to the T0 plate. 20 μL of NADPH was added to the TO plate and +NADPH group. A timer was started, and the plates were incubated in a water bath at 37° C. After 30 min of incubation, the TO plate was taken out, and the reaction was terminated with 250 μL of an internal standard-containing ACN solution. The +NADPH group was supplemented with 20 μL of the corresponding substrate solution, and the −NADPH group was supplemented with 20 μL of the corresponding substrate solution and […]. A timer was started, and the plates were incubated in a water bath at 37° C. After 30 min of incubation, the plates were taken out, and the reactions were terminated with 250 μL of an internal standard-containing ACN solution. Then the plates were shaken on a shaker at 800 rpm for 10 min and centrifuged at 4000 rpm for 15 min. 100 μL of the supernatant and 80 μL of ultrapure water were well mixed and subjected to LC-MS/MS analysis.
The IC50 values of the drugs for the site of metabolism of midazolam in CYP3A4 were calculated using Graphpad Prism and are shown in Table 7.

CYP3A4 [2] = target: T1, CYP3A4; assay: Time-dependent inhibition of site of metabolism of testosterone in human liver microsome CYP3A4; type: in vitro ADME; conditions: testosterone substrate; for IC50 shift at 30 min: human, human liver microsomes, probe testosterone (75 µM)
Experimental: as §1, with “905002, Donor36);” for “9050002, Donor, 36);”, “(testosterone, Vocko, CAS No. [58-22-0]/75” for “(midazolam, TRC, M343000/3”, “Co” for “Co,”
as §2, §3
The IC50 values of the drugs for the site of metabolism of testosterone in CYP3A4 were calculated using Graphpad Prism and are shown in Table 8.

hERG potassium channels = hERG potassium channels (Homo sapiens (Human), UniProt Q12809); assay: Blocking of hERG potassium currents (automated patch clamp, HEK293-hERG); type: cell-based; conditions: HEK293-hERG stable cell strain
Experimental: The blocking of hERG potassium currents by the compounds disclosed herein was tested in a stable cell strain transfected with hERG potassium channels using automated patch clamp.
An HEK293-hERG stable cell strain was subcultured in an MEM/EBSS medium (10% FBS, 400 μg/mL G418, 1% MEM non-essential amino acid solution (100×), 1% sodium pyruvate solution) at a density of 1:4, and an automated patch clamp experiment was conducted between hour 48 and hour 72 after the start of the culture. On the day of the experiment, the cells were digested with 0.25% trypsin, then centrifuged, collected, and resuspended in an extracellular fluid (140 mM NaCl, 4 mM KCl, 1 mM MgCl2, 2 mM CaCl2), 5 mM D-glucose monohydrate, 10 mM Hepes, pH 7.4, 298 mOsm) to form a cell suspension. The cell suspension was placed on the cell bank of the Patchliner instrument, which then applied the cells to a chip (NPC-16) by means of a negative pressure controller. The negative pressure drew individual cells to the wells of the chip. […] Data were recorded and analyzed using the HEAK Patchmaster, HEAK EPC10 patch clamp amplifier (Nanion), Pathliner software and Pathcontrol HT software, and the currents of the compounds at each concentration and the current of the blank control were analyzed.

[3] = 30 min pre-incubation with NADPH

T1 sequence (P08684 whole entry): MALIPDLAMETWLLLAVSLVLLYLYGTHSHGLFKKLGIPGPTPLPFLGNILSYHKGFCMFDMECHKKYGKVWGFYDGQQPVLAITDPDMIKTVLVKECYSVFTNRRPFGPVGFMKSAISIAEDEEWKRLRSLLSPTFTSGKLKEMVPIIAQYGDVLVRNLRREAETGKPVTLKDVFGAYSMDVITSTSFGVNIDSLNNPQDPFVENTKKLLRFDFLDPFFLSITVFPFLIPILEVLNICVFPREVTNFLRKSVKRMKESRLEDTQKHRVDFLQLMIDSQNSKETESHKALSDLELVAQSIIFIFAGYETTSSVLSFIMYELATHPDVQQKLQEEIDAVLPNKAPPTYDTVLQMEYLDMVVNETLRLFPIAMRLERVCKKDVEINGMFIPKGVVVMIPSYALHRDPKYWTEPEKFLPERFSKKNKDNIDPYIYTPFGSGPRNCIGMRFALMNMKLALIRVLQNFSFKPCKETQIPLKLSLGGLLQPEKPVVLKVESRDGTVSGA
Chain of hERG potassium channels (Q12809 whole entry): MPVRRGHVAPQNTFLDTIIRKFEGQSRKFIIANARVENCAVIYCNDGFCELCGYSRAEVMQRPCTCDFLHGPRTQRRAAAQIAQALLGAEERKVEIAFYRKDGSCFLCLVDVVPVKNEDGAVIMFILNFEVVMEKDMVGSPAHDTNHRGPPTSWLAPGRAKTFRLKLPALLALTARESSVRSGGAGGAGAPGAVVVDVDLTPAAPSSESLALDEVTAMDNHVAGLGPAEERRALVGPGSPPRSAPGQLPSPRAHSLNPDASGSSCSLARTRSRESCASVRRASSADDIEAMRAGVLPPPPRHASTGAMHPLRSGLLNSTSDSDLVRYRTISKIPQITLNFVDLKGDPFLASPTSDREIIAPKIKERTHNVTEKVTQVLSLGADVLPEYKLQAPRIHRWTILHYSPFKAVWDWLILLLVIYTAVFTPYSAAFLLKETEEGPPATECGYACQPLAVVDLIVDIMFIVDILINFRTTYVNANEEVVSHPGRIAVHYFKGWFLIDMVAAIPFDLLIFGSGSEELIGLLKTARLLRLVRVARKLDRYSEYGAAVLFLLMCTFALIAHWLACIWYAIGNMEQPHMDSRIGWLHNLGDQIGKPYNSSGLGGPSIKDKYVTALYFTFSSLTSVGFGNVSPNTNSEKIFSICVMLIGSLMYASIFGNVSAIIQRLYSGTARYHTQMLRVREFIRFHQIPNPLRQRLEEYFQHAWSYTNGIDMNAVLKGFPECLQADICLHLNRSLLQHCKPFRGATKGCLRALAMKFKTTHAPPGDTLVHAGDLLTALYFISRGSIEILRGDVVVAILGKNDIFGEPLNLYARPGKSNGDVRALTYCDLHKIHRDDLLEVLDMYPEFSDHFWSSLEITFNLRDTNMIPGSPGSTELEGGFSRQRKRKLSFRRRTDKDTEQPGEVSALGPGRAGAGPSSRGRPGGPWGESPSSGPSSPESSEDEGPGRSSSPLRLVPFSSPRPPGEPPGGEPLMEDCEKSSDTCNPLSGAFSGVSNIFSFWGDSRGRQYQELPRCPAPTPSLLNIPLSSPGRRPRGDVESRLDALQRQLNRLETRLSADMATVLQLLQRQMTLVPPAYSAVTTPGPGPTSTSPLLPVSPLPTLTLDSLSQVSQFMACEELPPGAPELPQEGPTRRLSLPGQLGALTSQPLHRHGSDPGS

| IC50 shift at 30 min (CYP3A4 [1]) | IC50 (CYP3A4 [1]; [3]) [µM] | IC50 (CYP3A4 [1]; pre-incubation without NADPH) [µM] | IC50 shift at 30 min (CYP3A4 [2]) | IC50 (CYP3A4 [2]; [3]) [µM] | IC50 (CYP3A4 [2]; pre-incubation without NADPH) [µM] | SMILES | IC50 (hERG potassium channels) [µM] | IC50 Shift (CYP3A4 [2]) |
| --- | --- | --- | --- | --- | --- | --- | --- | --- |
| 1 | 2.43 | 2.47 | 1 | 2.4 | 2.5 | C[C@@H]1Cc2cc3c(cc2[C@@H](c2ccc(N[C@H]4CCN(CCCF)C4)cn2)N1CC(F)(F)CO)OCO3 [Example 4, 2,2-Difluoro-3-((5S,7R)-5-(5-(((S)-1-(3-fluoropropyl)pyrrolidin-3-yl)amino)pyridin-2-yl)-7-methyl-7,8-dihydro-[1,3]dioxolo[4,5-g]isoquinolin-6(5H)-yl)propan-1-ol] | – | – |
| – | – | – | – | – | – | C[C@@H]1Cc2cc3c(cc2[C@@H](c2ncc(N[C@H]4CCN(CCCF)C4)cc2F)N1CC(F)(F)CO)OCO3 [Example 11, 2,2-Difluoro-3-((5S,7R)-5-(3-fluoro-5-(((S)-1-(3-fluoropropyl)pyrrolidin-3-yl)amino)pyridin-2-yl)-7-methyl-7,8-dihydro-[1,3]dioxolo[4,5-g]isoquinolin-6(5H)-yl)propan-1-ol] | > 30 | – |
| 0.9 | 9.16 | 10.2 | 0.5 | 11.6 | 25.2 | [2H]C1([2H])Oc2cc3c(cc2O1)[C@@H](c1ccc(N[C@H]2CCN(CCCF)C2)cn1)N(CC(F)(F)CO)[C@H](C)C3 [Example 12, 2,2-Difluoro-3-((5S,7R)-5-(5-(((S)-1-(3-fluoropropyl)pyrrolidin-3-yl)amino)pyridin-2-yl)-7-methyl-7,8-dihydro-[1,3]dioxolo[4,5-g]isoquinolin-6(5H)-yl-2,2-d2)propan-1-ol] | > 30 | – |
| – | – | – | – | – | – | [2H]C1([2H])Oc2cc3c(cc2O1)[C@@H](c1ccc(NC2CN(CCCF)C2)cn1)N(CC(F)(F)CO)[C@H](C)C3 [Example 13, 2,2-Difluoro-3-((5S,7R)-5-(5-((1-(3-fluoropropyl)azetidin-3-yl)amino)pyridin-2-yl)-7-methyl-7,8-dihydro-[1,3]dioxolo[4,5-g]isoquinolin-6(5H)-yl-2,2-d2)propan-1-ol] | – | No TDI |
